According to PubChem BioAssay (NCI):
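48-hour exposure; five concentrations; linearly interpolated endpoints. At the TGI there is no net growth.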

Key:
Test in all cases: NCI-60 cell line screen, 48 h
SK-MEL-5 melanoma = system: SK-MEL-5 melanoma
EKVX NSCLC = system: EKVX NSCLC
MOLT-4 leukemia = system: MOLT-4 leukemia
K-562 leukemia = system: K-562 leukemia
MDA-MB-231 breast = system: MDA-MB-231 breast
786-0 renal = system: 786-0 renal
HCT-116 colon = system: HCT-116 colon
UACC-257 melanoma = system: UACC-257 melanoma
T-47D breast = system: T-47D breast
SNB-19 CNS = system: SNB-19 CNS

Row | SMILES | TGI (SK-MEL-5 melanoma) | TGI (EKVX NSCLC) | TGI (MOLT-4 leukemia) | TGI (K-562 leukemia) | TGI (MDA-MB-231 breast) | TGI (786-0 renal) | TGI (HCT-116 colon) | TGI (UACC-257 melanoma) | TGI (T-47D breast) | TGI (SNB-19 CNS)
1 | COc1ccc2nc(/C(N)=C\C#N)ccc2c1 | > 100 µM | > 100 µM | 88.5 µM | > 100 µM | > 100 µM | > 100 µM | > 100 µM | > 100 µM | 76.2 µM | > 100 µM
2 | COc1cccc2c1C(=O)c1c(O)c3c(c(O)c1C2=O)C[C@H](O)C[C@@H]3OC1CC(N)C(O)C(C)O1 (stereo not given in full) | 2.22 µM | 20.8 µM | 0.144 µM | 10.1 µM | 6.05 µM | 14.2 µM | 7.88 µM | 5.15 µM | 15.3 µM | 15.2 µM
